The target in test [1] is T1, Fibroblast growth factor receptor 1 (Homo sapiens, UniProt P11362). As to the kind of experiment: Inhibition of recombinant human His-tagged FGFR1 cytoplasmic domain (308 to 731 residues) expressed in baculovirus expression system at 100 uM using Tyr 04 as substrate measured after 1 hr by Z'-LYTE assay relative to control.
In test [2] the target is T1, Fibroblast growth factor receptor 1. Kind of test: Inhibition of recombinant human His-tagged FGFR1 cytoplasmic domain (308 to 731 residues) expressed in baculovirus expression system at 500 uM using Tyr 04 as substrate measured after 1 hr by Z'-LYTE assay relative to control.
The target is the same in test [3]. As to the kind of experiment: Inhibition of recombinant human His-tagged FGFR1 cytoplasmic domain (308 to 731 residues) expressed in baculovirus expression system using Tyr 04 as substrate measured after 1 hr by Z'-LYTE assay.
Test [4] has as its target Fibroblast growth factor receptor 3 (Homo sapiens, UniProt P22607). Kind of test: Inhibition of recombinant human His-tagged FGFR3 cytoplasmic domain (399 to 806 residues) expressed in baculovirus expression system using Tyr 04 as substrate measured after 1 hr by Z'-LYTE assay.

Bounds are passed on as bounds.

Sequence of Fibroblast growth factor receptor 3 (P22607 whole entry, the tested form may be a part): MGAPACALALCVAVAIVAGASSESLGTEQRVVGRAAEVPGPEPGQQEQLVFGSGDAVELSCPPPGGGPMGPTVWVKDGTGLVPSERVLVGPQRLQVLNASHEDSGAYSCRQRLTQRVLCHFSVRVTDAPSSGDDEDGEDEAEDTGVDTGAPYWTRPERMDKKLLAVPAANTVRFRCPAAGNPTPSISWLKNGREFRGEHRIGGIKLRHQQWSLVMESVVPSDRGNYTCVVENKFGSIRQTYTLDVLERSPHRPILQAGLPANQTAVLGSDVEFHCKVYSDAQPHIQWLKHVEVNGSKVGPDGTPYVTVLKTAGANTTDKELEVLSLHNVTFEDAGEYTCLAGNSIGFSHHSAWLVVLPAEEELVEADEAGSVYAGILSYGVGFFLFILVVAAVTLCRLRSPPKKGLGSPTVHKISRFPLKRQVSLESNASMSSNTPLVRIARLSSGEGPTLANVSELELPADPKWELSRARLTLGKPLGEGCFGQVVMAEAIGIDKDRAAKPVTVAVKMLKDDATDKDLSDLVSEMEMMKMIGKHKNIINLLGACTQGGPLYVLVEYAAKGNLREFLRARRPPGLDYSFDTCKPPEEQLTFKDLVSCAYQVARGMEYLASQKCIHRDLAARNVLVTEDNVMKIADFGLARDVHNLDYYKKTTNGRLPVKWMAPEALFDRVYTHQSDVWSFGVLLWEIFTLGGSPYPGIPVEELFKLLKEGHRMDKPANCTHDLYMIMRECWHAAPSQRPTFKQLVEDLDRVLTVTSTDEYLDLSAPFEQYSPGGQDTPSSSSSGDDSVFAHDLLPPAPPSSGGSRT
T1 sequence (P11362 whole entry, the tested form may be a part): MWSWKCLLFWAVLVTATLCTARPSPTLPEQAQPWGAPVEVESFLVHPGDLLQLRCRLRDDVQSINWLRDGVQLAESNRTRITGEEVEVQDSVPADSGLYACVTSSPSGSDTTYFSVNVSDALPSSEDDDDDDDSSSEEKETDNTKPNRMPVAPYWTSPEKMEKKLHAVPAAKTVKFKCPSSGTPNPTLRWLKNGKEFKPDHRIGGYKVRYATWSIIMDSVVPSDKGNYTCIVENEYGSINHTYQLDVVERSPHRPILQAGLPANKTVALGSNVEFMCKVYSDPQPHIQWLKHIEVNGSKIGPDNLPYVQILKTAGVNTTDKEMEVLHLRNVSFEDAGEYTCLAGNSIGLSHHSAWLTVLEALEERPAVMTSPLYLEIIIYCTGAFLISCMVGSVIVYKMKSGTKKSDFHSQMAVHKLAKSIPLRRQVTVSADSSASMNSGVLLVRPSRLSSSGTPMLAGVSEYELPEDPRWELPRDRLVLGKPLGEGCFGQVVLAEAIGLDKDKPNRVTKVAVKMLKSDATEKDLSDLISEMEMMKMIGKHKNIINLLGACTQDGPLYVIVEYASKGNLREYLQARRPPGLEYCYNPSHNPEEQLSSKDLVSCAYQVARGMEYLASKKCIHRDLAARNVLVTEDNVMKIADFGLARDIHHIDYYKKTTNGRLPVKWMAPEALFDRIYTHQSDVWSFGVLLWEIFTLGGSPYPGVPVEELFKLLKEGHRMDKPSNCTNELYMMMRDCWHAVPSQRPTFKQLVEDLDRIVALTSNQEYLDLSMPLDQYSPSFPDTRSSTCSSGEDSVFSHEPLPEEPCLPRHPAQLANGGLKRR

For `Cc1csc(-c2ccc3cn[nH]c3c2)c1`, the inhibition (commonly the relative decrease from the control value, in per cent) at 100 µM in test [1] was 19%.
Regarding `FC(F)(F)c1cc(-c2ccc3cn[nH]c3c2)cc(C(F)(F)F)c1`, the inhibition at 100 µM in test [1] is -5%.
`Clc1cncc(-c2ccc3cn[nH]c3c2)c1`: the inhibition at 500 µM in test [2] was 73%. Besides, in test [3], the IC50 (in general, the concentration needed to halve the response being measured) came out at 36 µM.
As to `CCOc1ccc(F)c(-c2ccc3cn[nH]c3c2)c1F`, the IC50 in test [3] and in test [4] was over 100 µM in each case.
Take `c1ccc(-c2ccc3cn[nH]c3c2)cc1`: the inhibition at 500 µM in test [2] worked out at 53%. Also, the 50% inhibitory concentration (IC50) in test [3] is 77 µM.
For the compound `Clc1ccc(-c2ccc3cn[nH]c3c2)cc1`, the inhibition at 100 µM in test [1] came to 12%.
For `Oc1ccc(-c2ccc3cn[nH]c3c2)c(F)c1`, the half-maximal inhibitory concentration (IC50) was 9.9 µM in test [3] and over 100 µM in test [4].
Consider `COc1ccc(-c2ccc3cn[nH]c3c2)cc1`, for which, in test [1], the inhibition at 100 µM came out at 11%.
As for `c1coc(-c2ccc3cn[nH]c3c2)c1`, the inhibition at 100 µM in test [1] was 29%.
On to `Clc1cccc(-c2ccc3cn[nH]c3c2)c1`, for which, in test [1], the inhibition at 100 µM worked out at 32%.
As for `c1cncc(-c2ccc3cn[nH]c3c2)c1`, the inhibition at 500 µM in test [2] was 66%. The IC50 in test [3] was found to be 90 µM.
Regarding `Cc1cc(-c2ccc3cn[nH]c3c2)ccc1O`, in test [3], the IC50 was 8.8 µM.
In the case of `c1cc(-c2ccc3cn[nH]c3c2)cs1`, the inhibition at 100 µM in test [1] was 20%.
Take `c1cncc(-c2ccc3cc[nH]c3c2)c1`: the inhibition at 500 µM in test [2] worked out at 16%.
In the case of `Fc1cccc(-c2ccc3cn[nH]c3c2)c1`, the inhibition at 100 µM in test [1] is 19%.
`Clc1cncc(-c2ccc3cc[nH]c3c2)c1`: in test [2], the inhibition at 500 µM is 21%. For the same compound, the IC50 in test [3] was over 500 µM.
In the case of `Oc1ccc(-c2ccc3cn[nH]c3c2)cc1F`, the IC50 in test [3] was found to be 14 µM.
For the compound `CCOc1cc(F)cc(-c2ccc3cn[nH]c3c2)c1`, the concentration for half-maximal inhibition (IC50) in test [3] was 83 µM; in test [4], over 100 µM.
On to `Cc1cc(O)ccc1-c1ccc2cn[nH]c2c1`, for which, in test [3], the concentration for half-maximal inhibition (IC50) came out at 6.4 µM.
For `c1ccc(-c2ccc3cc[nH]c3c2)cc1`, the inhibition at 500 µM in test [2] amounted to 1%.
Regarding `CCOc1cccc(-c2ccc3cn[nH]c3c2)c1F`, the IC50 in test [3] is 9.7 µM; in test [4] it was over 100 µM.

These data come from ChEMBL document CHEMBL4130593, “Identification of an Indazole-Based Pharmacophore for the Inhibition of FGFR Kinases Using Fragment-Led de Novo Design” (ACS Med Chem Lett, 2017).
